Laboratory results taken from patent US10246446B2, “Blockers of the growth hormone receptor in disease prevention and treatment” (UNIVERSITY OF SOUTHERN CALIFORNIA, priority 2015, dated 2019).

Legend:
Assay type in all cases: cell-based
human GHR [1] = experiment: STAT5 phosphorylation assay (western blot), small molecules; conditions: mouse L cells expressing human GHR; compound 30 min prior to 5 nM hGH; FIG. 6
Experimental: FIG. 6. […] (A) Mouse L cells were incubated in 0.5% serum for 24 hours. Cells were treated with compounds 34, 37 or 38 for 30 min prior to 5 nM hGH treatment. The growth hormone antagonist (GHA) was used as a positive control.
The JAK/STAT signaling pathway is the principal signaling mechanism for a variety of growth factors and cytokines. In the growth hormone signaling pathway, dimerization of the GHR in response to GH binding leads to the activation of JAK by transphosphorylation. Activated JAK phosphorylates STAT5, which can then enter the nucleus and activate transcription of target genes. Inhibition of STAT5 phosphorylation will be used to analyze GHR antagonistic properties of the test compounds.
Mouse L fibroblasts engineered to express […] were obtained from Dr. John Kopchick. Serum starved L cells (0.5% FBS for 24 hours) were pre-treated for 30 minutes with 10 μM of each compound identified as a hit from the luciferase assays. Following this, cells were treated with 5 or 10 nM hGH for 10 minutes. Cells were collected and processed for western blotting with phospho-STAT5 and total STAT5 antibodies (Cell Signaling). The GHR antagonist, G120K is used as a positive control. Band intensity was analyzed using ImageJ and STAT5 phosphorylation normalized to total STAT5 levels. Compounds that inhibited STAT5 phosphorylation were selected for further drug optimization.

human GHR [2] = molecular target: T1, human GHR (Homo sapiens, UniProt P10912); experiment: c-fos reporter luciferase assay, GH-stimulated cells; conditions: for GH induced increase in c-fos reporter activity: FIG. 5A; for c-fos reporter activity, % of untreated controls: cells serum starved, incubated with test compound (10 μM), treated with GH, normalized to renilla luciferase
T1 construct: expressed in transfected cells; HEK293 according to the assay procedure
T1 sequence (P10912 19-638): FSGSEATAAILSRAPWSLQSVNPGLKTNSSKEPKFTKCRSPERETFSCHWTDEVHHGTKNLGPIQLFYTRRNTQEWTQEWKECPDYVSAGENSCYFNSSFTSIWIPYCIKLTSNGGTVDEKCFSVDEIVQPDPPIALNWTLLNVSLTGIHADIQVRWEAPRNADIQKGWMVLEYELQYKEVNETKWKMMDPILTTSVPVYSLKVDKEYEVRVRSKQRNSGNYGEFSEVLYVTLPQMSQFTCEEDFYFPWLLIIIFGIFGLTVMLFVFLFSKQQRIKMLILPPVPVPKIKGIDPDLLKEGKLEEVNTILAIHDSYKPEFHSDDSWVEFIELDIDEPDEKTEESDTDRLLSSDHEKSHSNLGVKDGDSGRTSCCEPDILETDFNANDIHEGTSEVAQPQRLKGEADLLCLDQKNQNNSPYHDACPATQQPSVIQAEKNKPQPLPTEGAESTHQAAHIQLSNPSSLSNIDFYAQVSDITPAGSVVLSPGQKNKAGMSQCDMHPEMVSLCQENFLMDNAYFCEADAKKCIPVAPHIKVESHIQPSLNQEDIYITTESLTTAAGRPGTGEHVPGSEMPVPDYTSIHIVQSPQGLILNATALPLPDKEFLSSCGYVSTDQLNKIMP
Experimental: (§1) FIG. 5A. Lead compounds (#34, 37, 38) identified by luciferase reporter assays. Mouse L cells expressing human GHR were transfected with c-fos or SOCS2 reporter luciferase plasmids. Cells were serum starved, incubated with test compounds (#34, 37, 38) and then treated with GH. Data are normalized to co-transfected CMV-driven renilla luciferase and expressed as relative light units (RLU). (A) c-fos reporter luciferase activity.
(§2) In order to perform high throughput screening (HTS) for inhibitors of GHR, HEK293 cell lines permanently transfected were established with a luciferase reporter driven by either c-fos or SOCS2 promoter (FIG. 7).
(§3) The SOCS (Suppressor of Cytokine Signaling) proteins are induced by GH and act as negative regulators of cytokine signaling pathways. […] Luciferase reporter constructs where the luciferase gene is under the control of promoters of either SOCS2 or c-fos have been stably transfected into human embryonic kidney, HEK293 cells. Cells were serum starved (0.5% FBS) for 24 hours to prevent interference by other growth factors and then treated with 5 or 10 nM hGH (established in dose response studies) and 10 μM of each test compound for 24 hours. This is followed by lysis and analysis of luciferase activity using the luciferase reporter assay (Promega). Each compound is tested in triplicate in a 96 well plate format.

human GHR [3] = molecular target: T1, human GHR; experiment: SOCS2 reporter luciferase assay, GH-stimulated cells; conditions: for GH induced increase in SOCS2 reporter activity: FIG. 5B; for SOCS2 reporter activity, % of untreated controls: cells serum starved, incubated with test compound (10 μM), treated with GH, normalized to renilla luciferase
Experimental: as §1, with “5B.” for “5A.”, “starved, then” for “starved,”, “before GH treatment.” for “and then treated with GH.”, “were” for “are”, “(B) SOCS2” for “(A) c-fos”
FIG. 7. High throughput screening (HTS) platform for the identification of GHR inhibitors. Mouse L cells expressing human GHR were transfected with SOCS2 reporter luciferase plasmids. Cells were serum starved, pre-treated with test compounds (numbered as shown) and then GH. Data are normalized to CMV renilla luciferase and expressed as relative light units (RLU).
as §2, §3

| SMILES | GH induced phosphorylation of STAT5 (human GHR [1]) | GH induced increase in c-fos reporter activity (human GHR [2]) | c-fos reporter activity, % of untreated controls (human GHR [2]) [%] | GH induced increase in SOCS2 reporter activity (human GHR [3]) | SOCS2 reporter activity, % of untreated controls (human GHR [3]) [%] |
| --- | --- | --- | --- | --- | --- |
| O=C(Nc1cccc(S(=O)(=O)N2CCCCCC2)c1)c1ccco1 [Compound 34] | able to inhibit phosphorylation of STAT5 | inhibited | 57 | inhibited | 76 |
| CNS(=O)(=O)c1cc(NC(=O)c2ccc(CSc3ccccc3)o2)ccc1C [Compound 37] | able to inhibit phosphorylation of STAT5 | inhibited | 27 | inhibited | 61 |
